Results: ChEMBL document CHEMBL3885881, “DrugMatrix”

Organism: Rattus norvegicus
Experiment: DrugMatrix - Regimen: Daily Repeat
Type: toxicity, organism-based, Sprague-Dawley
Parameters: regimen Daily Repeat, gender Male, age 6-8 weeks
Conditions: in vivo, iv, vehicle 100 % SALINE; for ABSOLUTE BASOPHIL / ABSOLUTE EOSINOPHIL / ABSOLUTE LYMPHOCYTE / ABSOLUTE MONOCYTE / ABSOLUTE SEGMENTED NEUTROPHIL / BASOPHIL / EOSINOPHIL / ERYTHROCYTE COUNT / HEMATOCRIT / HEMOGLOBIN / LEUKOCYTE COUNT / LYMPHOCYTE / MEAN CORPUSCULAR HEMOGLOBIN / MEAN CORPUSCULAR HEMOGLOBIN CONCENTRATION / MEAN CORPUSCULAR VOLUME / MONOCYTE / NEUTROPHIL / NUCLEATED RED BLOOD CELLS / PLATELET COUNT: tissue Blood; for ALANINE AMINOTRANSFERASE / ALBUMIN / ALKALINE PHOSPHATASE / ASPARTATE AMINOTRANSFERASE / BLOOD UREA NITROGEN / CARBON DIOXIDE / CHLORIDE / CHOLESTEROL / CREATINE PHOSPHOKINASE / CREATININE / GLUCOSE / LACTATE DEHYDROGENASE / LIPASE / PHOSPHORUS / POTASSIUM / SODIUM / TOTAL BILIRUBIN / TOTAL PROTEIN / URIC ACID: tissue Plasma
[1] = 0.07 mg/kg, 72 h, dose level Low, time 3 day
[2] = 0.07 mg/kg, 120 h, dose level Low, time 5 day
[3] = […], 72 h, dose 0.16 mg/Kg, dose level High, time 3 day
[4] = […], 120 h, dose 0.16 mg/Kg, dose level High, time 5 day

## CNC(=O)Oc1ccc2c(c1)[C@]1(C)CCN(C)[C@@H]1N2C [PHYSOSTIGMINE]
[1]
  ABSOLUTE BASOPHIL: 0 CELLS/uL
  ABSOLUTE EOSINOPHIL: 271.33 CELLS/uL
  ABSOLUTE LYMPHOCYTE: 11715.67 CELLS/uL
  ABSOLUTE MONOCYTE: 88.33 CELLS/uL
  ABSOLUTE SEGMENTED NEUTROPHIL: 1491.33 CELLS/uL
  BASOPHIL: 0%
  EOSINOPHIL: 2%
  ERYTHROCYTE COUNT: 5.08 x10E6/uL
  HEMATOCRIT: 32.57%
  HEMOGLOBIN: 12.27 G/DL
  LEUKOCYTE COUNT: 13.57 x10E3/uL
  LYMPHOCYTE: 86.67%
  MEAN CORPUSCULAR HEMOGLOBIN: 24.13 pg
  MEAN CORPUSCULAR HEMOGLOBIN CONCENTRATION: 37.67 G/DL
  MEAN CORPUSCULAR VOLUME: 64.1 fL
  MONOCYTE: 0.67%
  NEUTROPHIL: 10.67%
  NUCLEATED RED BLOOD CELLS: 0 /100WBC
  PLATELET COUNT: 1091 x10E3/uL
  ALANINE AMINOTRANSFERASE: 64.33 u/L
  ALBUMIN: 4.03 G/DL
  ALKALINE PHOSPHATASE: 342.67 u/L
  ASPARTATE AMINOTRANSFERASE: 99.67 u/L
  BLOOD UREA NITROGEN: 14.67 mg/dL
  CARBON DIOXIDE: 24.67 mmol/L
  CHLORIDE: 105.33 MEQ/L
  CHOLESTEROL: 67.33 mg/dL
  CREATINE PHOSPHOKINASE: 386 u/L
  CREATININE: 0.14 mg/dL
  GLUCOSE: 161.67 mg/dL
  LACTATE DEHYDROGENASE: 95.33 u/L
  LIPASE: 7.67 u/L
  PHOSPHORUS: 12.37 mg/dL
  POTASSIUM: 5.92 MEQ/L
  SODIUM: 144.47 MEQ/L
  TOTAL BILIRUBIN: 0.17 mg/dL
  TOTAL PROTEIN: 5.73 G/DL
  URIC ACID: 1.23 mg/dL
[2]
  ABSOLUTE BASOPHIL: 0 CELLS/uL
  ABSOLUTE EOSINOPHIL: 138.33 CELLS/uL
  ABSOLUTE LYMPHOCYTE: 16178.33 CELLS/uL
  ABSOLUTE MONOCYTE: 247.67 CELLS/uL
  ABSOLUTE SEGMENTED NEUTROPHIL: 2735.67 CELLS/uL
  BASOPHIL: 0%
  EOSINOPHIL: 0.67%
  ERYTHROCYTE COUNT: 5.42 x10E6/uL
  HEMATOCRIT: 34.33%
  HEMOGLOBIN: 13.27 G/DL
  LEUKOCYTE COUNT: 19.3 x10E3/uL
  LYMPHOCYTE: 84%
  MEAN CORPUSCULAR HEMOGLOBIN: 24.43 pg
  MEAN CORPUSCULAR HEMOGLOBIN CONCENTRATION: 38.7 G/DL
  MEAN CORPUSCULAR VOLUME: 63.27 fL
  MONOCYTE: 1.33%
  NEUTROPHIL: 14%
  NUCLEATED RED BLOOD CELLS: 0 /100WBC
  PLATELET COUNT: 1244.33 x10E3/uL
  ALANINE AMINOTRANSFERASE: 50 u/L
  ALBUMIN: 4.33 G/DL
  ALKALINE PHOSPHATASE: 370 u/L
  ASPARTATE AMINOTRANSFERASE: 86.67 u/L
  BLOOD UREA NITROGEN: 22 mg/dL
  CARBON DIOXIDE: 24 mmol/L
  CHLORIDE: 102 MEQ/L
  CHOLESTEROL: 62.33 mg/dL
  CREATINE PHOSPHOKINASE: 479.33 u/L
  CREATININE: 0.2 mg/dL
  GLUCOSE: 168 mg/dL
  LACTATE DEHYDROGENASE: 93.67 u/L
  LIPASE: 8 u/L
  PHOSPHORUS: 13.33 mg/dL
  POTASSIUM: 6.49 MEQ/L
  SODIUM: 141.5 MEQ/L
  TOTAL BILIRUBIN: 0.2 mg/dL
  TOTAL PROTEIN: 6.17 G/DL
  URIC ACID: 1.63 mg/dL
[3]
  ABSOLUTE BASOPHIL: 0 CELLS/uL
  ABSOLUTE EOSINOPHIL: 107 CELLS/uL
  ABSOLUTE LYMPHOCYTE: 10987.67 CELLS/uL
  ABSOLUTE MONOCYTE: 71.33 CELLS/uL
  ABSOLUTE SEGMENTED NEUTROPHIL: 1134 CELLS/uL
  BASOPHIL: 0%
  EOSINOPHIL: 1%
  ERYTHROCYTE COUNT: 5.42 x10E6/uL
  HEMATOCRIT: 33.77%
  HEMOGLOBIN: 13 G/DL
  LEUKOCYTE COUNT: 12.3 x10E3/uL
  LYMPHOCYTE: 88.33%
  MEAN CORPUSCULAR HEMOGLOBIN: 24.03 pg
  MEAN CORPUSCULAR HEMOGLOBIN CONCENTRATION: 38.57 G/DL
  MEAN CORPUSCULAR VOLUME: 62.37 fL
  MONOCYTE: 0.67%
  NEUTROPHIL: 10%
  NUCLEATED RED BLOOD CELLS: 0 /100WBC
  PLATELET COUNT: 1231 x10E3/uL
  ALANINE AMINOTRANSFERASE: 56.33 u/L
  ALBUMIN: 4.17 G/DL
  ALKALINE PHOSPHATASE: 305 u/L
  ASPARTATE AMINOTRANSFERASE: 87.33 u/L
  BLOOD UREA NITROGEN: 15.33 mg/dL
  CARBON DIOXIDE: 27.67 mmol/L
  CHLORIDE: 107 MEQ/L
  CHOLESTEROL: 78.67 mg/dL
  CREATINE PHOSPHOKINASE: 187.33 u/L
  CREATININE: 0.13 mg/dL
  GLUCOSE: 159.33 mg/dL
  LACTATE DEHYDROGENASE: 115.33 u/L
  LIPASE: 8.67 u/L
  PHOSPHORUS: 13.93 mg/dL
  POTASSIUM: 6.15 MEQ/L
  SODIUM: 147.9 MEQ/L
  TOTAL BILIRUBIN: 0.17 mg/dL
  TOTAL PROTEIN: 5.83 G/DL
  URIC ACID: 1.43 mg/dL
[4]
  ABSOLUTE BASOPHIL: 0 CELLS/uL
  ABSOLUTE EOSINOPHIL: 171.67 CELLS/uL
  ABSOLUTE LYMPHOCYTE: 8706.33 CELLS/uL
  ABSOLUTE MONOCYTE: 43.33 CELLS/uL
  ABSOLUTE SEGMENTED NEUTROPHIL: 3645.33 CELLS/uL
  BASOPHIL: 0%
  EOSINOPHIL: 1.33%
  ERYTHROCYTE COUNT: 5.7 x10E6/uL
  HEMATOCRIT: 35.8%
  HEMOGLOBIN: 13.57 G/DL
  LEUKOCYTE COUNT: 12.57 x10E3/uL
  LYMPHOCYTE: 68.67%
  MEAN CORPUSCULAR HEMOGLOBIN: 23.8 pg
  MEAN CORPUSCULAR HEMOGLOBIN CONCENTRATION: 37.9 G/DL
  MEAN CORPUSCULAR VOLUME: 62.8 fL
  MONOCYTE: 0.33%
  NEUTROPHIL: 29.67%
  NUCLEATED RED BLOOD CELLS: 0 /100WBC
  PLATELET COUNT: 1062 x10E3/uL
  ALANINE AMINOTRANSFERASE: 52.67 u/L
  ALBUMIN: 4.03 G/DL
  ALKALINE PHOSPHATASE: 416.33 u/L
  ASPARTATE AMINOTRANSFERASE: 80 u/L
  BLOOD UREA NITROGEN: 15 mg/dL
  CARBON DIOXIDE: 26 mmol/L
  CHLORIDE: 104 MEQ/L
  CHOLESTEROL: 60 mg/dL
  CREATINE PHOSPHOKINASE: 226.67 u/L
  CREATININE: 0.22 mg/dL
  GLUCOSE: 181 mg/dL
  LACTATE DEHYDROGENASE: 200 u/L
  LIPASE: 7.67 u/L
  PHOSPHORUS: 13.3 mg/dL
  POTASSIUM: 6.09 MEQ/L
  SODIUM: 146.53 MEQ/L
  TOTAL BILIRUBIN: 0.13 mg/dL
  TOTAL PROTEIN: 6.43 G/DL
  URIC ACID: 1.77 mg/dL
